Source: patent publication US20230233569A1 (Revolution Medicines, Inc., priority 2020, published 2023)
Where “and” joins values, the source holds several entries; their conditions need not be identical. Equal values may be shown once. Read-outs that look alike come from different tables or passages of the source.

Experiments:
NCI-H358 (K-Ras G12C) = test: CellTiter-Glo cell viability assay, 5-day treatment; format: cell-based; details: Homo sapiens
Experimental: Protocol: CellTiter-Glo® Cell Viability Assay
Note—The following protocol describes a procedure for monitoring cell viability of K-Ras mutant cancer cell lines in response to a compound of the invention. Other RAS isoforms may be employed, though the number of cells to be seeded will vary based on cell line used.
(§1) Test compounds (132.5 nL) were directly dispensed into the assay plates containing cells. […] On day 5, assay plates and their contents were equilibrated to room temperature for approximately 30 minutes. […] Luminescence was measured using the PerkinElmer Enspire. Data were normalized by the following: (Sample signal/Avg. DMSO)*100. The data were fit using a four-parameter logistic fit.
as §1, with “nl)” for “nL)”

KRAS G12S = KRAS G12S (Homo sapiens, UniProt P01116+P62937, G12S); test: Disruption of BRAF RBD interaction with Ras (FRET / MOA assay, with Cyclophilin A); format: biochemical
KRAS G12S, sequence (P01116 1-169 isoform P01116-2 G12S limits assumed): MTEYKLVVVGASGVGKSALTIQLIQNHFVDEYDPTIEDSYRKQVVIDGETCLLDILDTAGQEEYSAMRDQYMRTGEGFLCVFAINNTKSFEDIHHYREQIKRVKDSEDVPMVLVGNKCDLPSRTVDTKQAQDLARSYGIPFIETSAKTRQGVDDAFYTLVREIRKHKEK
KRAS G12S, sequence (P62937 whole entry): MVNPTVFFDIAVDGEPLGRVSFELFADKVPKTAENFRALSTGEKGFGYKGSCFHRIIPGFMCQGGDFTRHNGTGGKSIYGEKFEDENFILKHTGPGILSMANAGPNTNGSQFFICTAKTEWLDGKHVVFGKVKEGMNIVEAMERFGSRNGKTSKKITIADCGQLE
Description: (§2) This protocol may also be executed substituting other Ras proteins or nucleotides.
(§3) The purpose of this biochemical assay was to measure the ability of test compounds to facilitate ternary complex formation between a nucleotide-loaded K-Ras isoform and Cyclophilin A; the resulting ternary complex disrupts binding to a BRAF^RBD construct, inhibiting K-Ras signaling through a RAF effector. Data is reported as IC50 values.
(§4) Compound was present in plate wells as a 10-point 3-fold dilution series starting at a final concentration of 30 μM. After incubation at 25° C. for 3 hours, a mixture of Anti-His Eu-W1024 and anti-GST allophycocyanin was then added to assay sample wells at final concentrations of 10 nM and 50 nM, respectively, and the reaction incubated for an additional 1.5 hours. […] Compounds that facilitate disruption of a K-Ras:RAF complex were identified as those eliciting a decrease in the TR-FRET ratio relative to DMSO control wells.
as §3, with “BRAF^RBDD” for “BRAF^RBD”

KRAS G13D = KRAS G13D (Homo sapiens, UniProt P01116+P62937, G13D); test: as above; format: biochemical
KRAS G13D, sequence (P01116 1-169 isoform P01116-2 G13D limits assumed): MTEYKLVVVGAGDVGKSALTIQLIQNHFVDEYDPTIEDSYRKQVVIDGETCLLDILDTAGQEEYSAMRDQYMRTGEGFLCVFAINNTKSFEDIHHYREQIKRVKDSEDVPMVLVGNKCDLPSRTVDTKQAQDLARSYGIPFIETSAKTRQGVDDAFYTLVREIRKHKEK
KRAS G13D, sequence (P62937 whole entry): as the sequence (P62937 whole entry) above
Description: as §2, §3, §4
as §3, with “BRAF^RBDD” for “BRAF^RBD”

KRAS G12V = KRAS G12V (Homo sapiens, UniProt P01116+P62937, G12V); test: as above; format: biochemical
KRAS G12V, sequence (P01116 1-169 isoform P01116-2 G12V limits assumed): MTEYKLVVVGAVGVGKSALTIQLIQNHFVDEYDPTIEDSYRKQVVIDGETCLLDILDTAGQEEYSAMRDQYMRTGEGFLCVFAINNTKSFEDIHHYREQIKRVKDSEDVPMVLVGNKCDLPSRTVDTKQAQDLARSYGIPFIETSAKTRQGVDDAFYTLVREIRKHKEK
KRAS G12V, sequence (P62937 whole entry): as the sequence (P62937 whole entry) above
Description: as §2, §3, §4
as §3, with “BRAF^RBDD” for “BRAF^RBD”

NRAS G12C = NRAS G12C (Homo sapiens, UniProt P01111+P62937, G12C); test: as above; format: biochemical
NRAS G12C, sequence (P01111 whole entry G12C): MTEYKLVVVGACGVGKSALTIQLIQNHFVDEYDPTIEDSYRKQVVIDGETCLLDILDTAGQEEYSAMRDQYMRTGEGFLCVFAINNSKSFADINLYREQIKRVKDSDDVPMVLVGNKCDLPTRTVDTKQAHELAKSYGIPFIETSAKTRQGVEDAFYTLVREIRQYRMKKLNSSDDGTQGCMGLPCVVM
NRAS G12C, sequence (P62937 whole entry): as the sequence (P62937 whole entry) above
Description: as §2, §3, §4
as §3, with “BRAF^RBDD” for “BRAF^RBD”

KRAS G12C = KRAS G12C (Homo sapiens, UniProt P01116+P62937, G12C); test: as above; format: biochemical
KRAS G12C, sequence (P01116 1-169 isoform P01116-2 G12C): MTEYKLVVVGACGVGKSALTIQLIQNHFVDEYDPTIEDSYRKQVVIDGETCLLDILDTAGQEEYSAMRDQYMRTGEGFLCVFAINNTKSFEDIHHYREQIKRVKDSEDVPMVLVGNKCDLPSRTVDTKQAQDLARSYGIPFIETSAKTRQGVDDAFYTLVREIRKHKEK
KRAS G12C, sequence (P62937 whole entry): as the sequence (P62937 whole entry) above
Description: as §2, §3, §4
as §3, with “BRAF^RBDD” for “BRAF^RBD”

KRAS G12D = KRAS G12D (Homo sapiens, UniProt P01116+P62937, G12D); test: as above; format: biochemical
KRAS G12D, sequence (P01116 1-169 isoform P01116-2 G12D limits assumed): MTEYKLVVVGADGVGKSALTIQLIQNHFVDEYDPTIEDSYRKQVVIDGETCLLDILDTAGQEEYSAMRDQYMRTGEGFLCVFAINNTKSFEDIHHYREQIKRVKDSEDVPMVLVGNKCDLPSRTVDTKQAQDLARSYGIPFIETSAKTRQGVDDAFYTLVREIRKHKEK
KRAS G12D, sequence (P62937 whole entry): as the sequence (P62937 whole entry) above
Description: as §2, §3, §4
as §3, with “BRAF^RBDD” for “BRAF^RBD”

KRAS G13C = KRAS G13C (Homo sapiens, UniProt P01116+P62937, G13C); test: as above; format: biochemical
KRAS G13C, sequence (P01116 1-169 isoform P01116-2 G13C): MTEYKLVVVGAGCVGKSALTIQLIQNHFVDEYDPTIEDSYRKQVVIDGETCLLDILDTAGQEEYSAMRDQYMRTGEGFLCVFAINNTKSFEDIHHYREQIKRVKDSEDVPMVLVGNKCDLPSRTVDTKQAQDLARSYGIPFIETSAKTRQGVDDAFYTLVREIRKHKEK
KRAS G13C, sequence (P62937 whole entry): as the sequence (P62937 whole entry) above
Description: as §2, §3, §4
as §3, with “BRAF^RBDD” for “BRAF^RBD”

KRAS WT = KRAS WT (Homo sapiens, UniProt P01116+P62937); test: as above; format: biochemical
KRAS WT, sequence (P01116 1-169 isoform P01116-2 limits assumed): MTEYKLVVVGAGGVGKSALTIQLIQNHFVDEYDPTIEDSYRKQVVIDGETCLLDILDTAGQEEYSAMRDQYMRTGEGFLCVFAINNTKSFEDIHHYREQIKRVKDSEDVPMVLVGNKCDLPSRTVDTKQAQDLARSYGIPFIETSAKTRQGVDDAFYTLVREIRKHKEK
KRAS WT, sequence (P62937 whole entry): as the sequence (P62937 whole entry) above
Description: as §2, §3, §4
as §3, with “BRAF^RBDD” for “BRAF^RBD”

[1] = NCI-H358, 120 h, 5-day treatment, read-out: H358 Cell Viability assay data (K-Ras G12C, IC50)
[2] = read-out: KRAS G12S FRET data, IC50
[3] = KRAS G13D, read-out: KRAS G13D FRET data IC50
[4] = KRAS G12V, read-out: KRAS G12V FRET data IC50
[5] = NRAS G12C, read-out: NRAS G12C FRET data IC50
[6] = read-out: KRAS G12C FRET data, IC50
[7] = read-out: KRAS G12D FRET data, IC50
[8] = read-out: KRAS G13C FRET data, IC50
[9] = KRAS WT, read-out: KRAS WT FRET data IC50

Row | SMILES | IC50 (NCI-H358 (K-Ras G12C); [1]) [nM] | IC50 (KRAS G12S; [2]) | IC50 (KRAS G13D; [3]) | IC50 (KRAS G12V; [4]) | IC50 (NRAS G12C; [5]) [nM] | IC50 (KRAS G12C; [6]) | IC50 (KRAS G12D; [7]) | IC50 (KRAS G13C; [8]) | IC50 (KRAS WT; [9]) | further results
1 | CCn1c(-c2cnccc2COC)c2c3cc(ccc31)-c1cc(O)cc(c1)C[C@H](NC(=O)[C@H](C(C)C)N(C)C(=O)[C@H]1CCN(C)C1)C(=O)N1CCC[C@H](N1)C(=O)OCC(C)(C)C2 [Example A27, (2S)—N-[(8S,14S)-22-ethyl-4-hydroxy-21-[4-(methoxymethyl)pyridin-3-yl]-18,18-dimethyl-9,15-dioxo-16-oxa-10,22,28-triazapentacyclo[18.5.2.1^2,6.1^10,14.0^23,27]nonacosa-1(26),2,4,6(29),20,23(27),24-heptaen-8-yl]-3-methyl-2-{N-methyl-1-[(3S)-1-methylpyrrolidin-3-yl]formamido}butanamide] | 1000 to 10000 |  |  |  |  |  |  |  |  | IC50 (KRAS G12S; KRAS G12S FRET data, IC50): 100 to 1000 nM; IC50 (KRAS G13D; KRAS G13D FRET data IC50, KRAS G13D): 10 to 100 nM; IC50 (KRAS G12V; KRAS G12V FRET data IC50, KRAS G12V): 1000 to 10000 nM; IC50 (NRAS G12C; NRAS G12C FRET data IC50, NRAS G12C): 100 to 1000 nM; IC50 (KRAS G12C; KRAS G12C FRET data, IC50): 100 to 1000 nM; IC50 (KRAS G12D; KRAS G12D FRET data, IC50): 100 to 1000 nM; IC50 (KRAS G13C; KRAS G13C FRET data, IC50): 10 to 100 nM; IC50 (KRAS WT; KRAS WT FRET data IC50, KRAS WT): 100 to 1000 nM
2 | CCn1c(-c2cnccc2COC)c2c3cc(ccc31)-c1cc(O)cc(c1)C[C@H](NC(=O)[C@H](C(C)C)N(C)C(=O)[C@H]1CCN(C(=O)C3COC3)C1)C(=O)N1CCC[C@H](N1)C(=O)OCC(C)(C)C2 [Example A9] | 1000 to 10000 | 100 to 1000 nM | 100 to 1000 nM | 100 to 1000 nM | 100 to 1000 | 10 to 100 nM | 1000 to 10000 nM | 100 to 1000 nM | 100 to 1000 nM | 
3 | CCn1c(-c2cccnc2COC)c2c3cc(ccc31)-c1cc(O)cc(c1)C[C@H](NC(=O)[C@H](C(C)C)N(C)C(=O)[C@H]1CCN(C(=O)CN)C1)C(=O)N1CCC[C@H](N1)C(=O)OCC(C)(C)C2 [Example A12] |  | 100 to 1000 nM and 1000 to 10000 nM | 100 to 1000 nM and 1000 to 10000 nM | 100 to 1000 nM and 1000 to 10000 nM | 1000 to 10000 | 100 to 1000 nM and 10 to 100 nM | 100 to 1000 nM and 1000 to 10000 nM | 100 to 1000 nM and 1000 to 10000 nM | 100 to 1000 nM and 1000 to 10000 nM | IC50 (NCI-H358 (K-Ras G12C); NCI-H358, 120 h, 5-day treatment, read-out: H358 Cell Viability IC50): 4290 nM; IC50 (KRAS G13D; read-out: FRET G13D IC50): 219 nM; IC50 (KRAS G12V; read-out: FRET G12V IC50): 329 nM; IC50 (KRAS G12C; read-out: FRET G12C IC50): 68 nM; IC50 (KRAS G12D; read-out: FRET G12D IC50): 154 nM; IC50 (KRAS G13C; read-out: FRET G13C IC50): 148 nM

More lines, main results first:

Row | IC50 (NCI-H358 (K-Ras G12C); [1]) [nM] | IC50 (KRAS G12S; [2]) | IC50 (KRAS G13D; [3]) | IC50 (KRAS G12V; [4]) | IC50 (NRAS G12C; [5]) [nM] | IC50 (KRAS G12C; [6]) | IC50 (KRAS G12D; [7]) | IC50 (KRAS G13C; [8]) | IC50 (KRAS WT; [9]) | SMILES | further results
4 |  | > 10000 nM | > 10000 nM | > 10000 nM | > 10000 |  | > 10000 nM |  | > 10000 nM | C=CC(=O)N1CC[C@H](C(=O)N(C)[C@H](C(=O)N[C@H]2Cc3nc(cs3)-c3ccc4c(c3)c(c(-c3cccnc3[C@H](C)OC)n4CC)CC(C)(C)CN(C)C[C@@H]3CCCN(N3)C2=O)C(C)C)C1 [Example A287] | IC50 (NCI-H358 (K-Ras G12C); NCI-H358, H358, K-Ras G12C, read-out: Additional H358 Cell Viability assay data (K-Ras G12C, IC50)): > 1000 nM; IC50 (KRAS G12C; KRAS G12C, read-out: KRAS G12C FRET data IC50): > 10000 nM; IC50 (KRAS G13C; KRAS G13C, read-out: KRAS G13C FRET data IC50): > 10000 nM
5 | 1000 to 10000 | 100 to 1000 nM | 100 to 1000 nM | 1000 to 10000 nM | 100 to 1000 | 100 to 1000 nM | 1000 to 10000 nM | 100 to 1000 nM | 100 to 1000 nM | CCn1c(-c2cnccc2COC)c2c3cc(ccc31)-c1cc(O)cc(c1)C[C@H](NC(=O)[C@H](C(C)C)N(C)C(=O)CN1CCOCC1)C(=O)N1CCC[C@H](N1)C(=O)OCC(C)(C)C2 [Example A65] | 
